{"source": "patent US20220257531A1", "about": "“COMPOSITIONS AND METHODS FOR TREATMENT OF A FIBROTIC DISEASE” (Avexxin AS, priority 2017, published 2022)", "tested_on": "BLM-induced pulmonary fibrosis in C57BL/6J mice", "assay": "Bleomycin (BLM)-induced pulmonary fibrosis model, Example 4", "format": "in vivo", "excerpt": "The bleomycin model of idiopathic fibrosis (IPF) is a well-characterized and currently an extensively used animal model of Interstitial lung disease (ILD) due to its: i) ability to reproduce many aspects of the disease, ii) good reproducibility, and iii) ease of induction. Overall, studies using the bleomycin model have identified many of the cellular and molecular mechanisms now recognized as being important in pathogenesis of IPF, as well as novel therapies for ILDs. The model is based on intratracheal administration of bleomycin in mice that results in alveolar epithelial damage, alveolar inflammation and fibrosis within a period of 21 days. Consequently, the model allows therapeutic testing of novel agents within a reasonably short period of time (Liu T eta al, Methods Mol Biol. 2017;1627:27-42).\nTest Article & Formulations Compound B (Synthetica A/S, Norway) was formulated for subcutaneous administration in a nano-emulsion containing 2 mg/ml Compound B, 2 mg/ml MCT oil (Lipoid), 2 mg/ml Polysorbate 80 (Fluka) and sodium citrate buffer 10 mM (pH 7). The final solution was sterilized by filtration and saturated with Argon 5.0 AGA prior to aliquoting in 10 ml tubes stored at −20° C. till further use. A separate Polysorbate 80- and sodium citrate buffer-based vehicle solution without Compound B and MCT oil was also prepared, sterilized, aliquoted and stored, serving as the subcutaneous vehicle control used in the UUO animal study. Nintedanib (approved and commercialized for IPF under the brand names Ofev/Vargatef) was used as a positive control. The compound was purchased from Chemexpress Co., Ltd. (China) and suspended in 1% methylcellulose.\nSix-week-old female C57BL/6J mice were obtained from Japan SLC, Inc. (Japan). Animals were kept in an animal room facility at a temperature of 23±2° C., humidity of 45±10%, under a 12-hour light and dark cycle (light from 8:00 to 20:00). A high pressure of 20±4 Pa was kept in the experimental room to prevent contamination. The animals were housed in TPX cages (CLEA Japan; maximum of 6 mice per cage) and fed with a sterilized normal diet (CE-2; CLEA Japan, Japan) provided ad libitum, being placed in a metal lid on the top of the cage. Sterilized Paper-Clean (Japan SLC) was used for bedding and was replaced once a week. Pure water was provided ad libitum from a water bottle equipped with a rubber stopper and a sipper tube. […]\nThe viability, clinical signs and behavior were monitored every day. Body weight was recorded daily after the day of starting the BLM administration (Day 0). […]\nTo quantify lung hydroxyproline content, frozen whole left lung samples were processed by an acid hydrolysis method as follows. […]"}
{"smiles": "COC(=O)c1ccc2c(c1)NC(=O)/C2=C(\\Nc1ccc(N(C)C(=O)CN2CCN(C)CC2)cc1)c1ccccc1", "note": "[Nintedanib]", "values": [{"measurement": "Body weight changes at sacrifice", "setting": "100 mg/kg per os daily Day 7-20, Day 21, % of baseline Day 0, mean ± SD", "result": "103 ± 5", "unit": "%"}, {"measurement": "Lung Hydroxyproline", "setting": "100 mg/kg per os daily Day 7-20, Day 21, mean ± SD", "result": "50.6 ± 14.5", "unit": "μg/ml left lung"}, {"measurement": "Ashcroft score", "setting": "Masson's Trichrome, 100 mg/kg per os daily Day 7-20, mean ± SD", "result": "1.6 ± 1.0"}, {"measurement": "mice found dead before reaching Day 21", "setting": "per treatment group of 12, treatment Day 7-20", "result": "three out of 12"}]}
